In patent publication US20180000085A1, “USE OF PICOLINAMIDE COMPOUNDS WITH FUNGICIDAL ACTIVITY” (DOW AGROSCIENCES LLC, priority 2014, published 2018):

Tests used:
[1] = system: Zymoseptoria tritici; test: Leaf blotch of wheat (SEPTTR) disease control on wheat seedlings; assay type: in vivo; set-up: key to SEPTTR 1DP, HV activity at 100 ppm (% control rating) / SEPTTR 3DC, HV activity at 100 ppm (% control rating) / SEPTTR disease control, 1DP / SEPTTR disease control, 3DC / SEPTTR 1DP disease control rating, HV activity / SEPTTR 3DC disease control rating, HV activity / SEPTTR 3DC, LV activity at 125.1 g/H (% Control rating) / SEPTTR 1DP, LV activity at 125.1 g/H (% Control rating) / SEPTTR 1DP disease control rating, LV activity at 125.1 g/H / SEPTTR 3DC disease control rating, LV activity at 125.1 g/H / SEPTTR 3DC disease control rating, HV activity at 100 ppm / SEPTTR 1DP disease control rating, HV activity at 100 ppm / HV activity at 100 ppm SEPTTR 3DC (disease control rating) / HV activity at 100 ppm SEPTTR 1DP (disease control rating) / LV activity at 125.1 g/H SEPTTR 1DP (disease control rating) / LV activity at 125.1 g/H SEPTTR 3DC (disease control rating): A: > 80; B: ≤ 80; C: Not Tested; D: No Activity Observed in the Reported Assay; settings: for SEPTTR 1DP disease control rating, HV activity / SEPTTR 3DC disease control rating, HV activity: HV application at 100 ppm; for LV activity at 125.1 g/H SEPTTR 1DP (disease control rating) / LV activity at 125.1 g/H SEPTTR 3DC (disease control rating) / SEPTTR 1DP, LV activity at 125.1 g/H (% Control rating) / SEPTTR 3DC, LV activity at 125.1 g/H (% Control rating): low volume application; for SEPTTR 1DP disease control rating, HV activity at 100 ppm: 1 day protectant; for SEPTTR 3DC disease control rating, HV activity at 100 ppm: 3 day curative
[2] = system: Puccinia triticina; test: Wheat brown rust (PUCCRT) disease control on wheat seedlings; assay type: in vivo; set-up: key to PUCCRT 3DC, HV activity at 100 ppm (% control rating) / PUCCRT disease control, 3DC / PUCCRT 1DP disease control rating, HV activity / PUCCRT 3DC disease control rating, HV activity / PUCCRT 3DC, LV activity at 125.1 g/H (% Control rating) / PUCCRT 1DP, LV activity at 125.1 g/H (% Control rating) / PUCCRT 3DC disease control rating, LV activity at 125.1 g/H / PUCCRT 1DP disease control rating, LV activity at 125.1 g/H / PUCCRT 3DC disease control rating, HV activity at 100 ppm / PUCCRT 1DP disease control rating, HV activity at 100 ppm / HV activity at 100 ppm PUCCRT 3DC (disease control rating) / LV activity at 125.1 g/H PUCCRT 1DP (disease control rating) / LV activity at 125.1 g/H PUCCRT 3DC (disease control rating): A: > 80; B: ≤ 80; C: Not Tested; D: No Activity Observed in the Reported Assay; settings: for PUCCRT 1DP disease control rating, HV activity / PUCCRT 3DC disease control rating, HV activity: HV application at 100 ppm; for LV activity at 125.1 g/H PUCCRT 1DP (disease control rating) / LV activity at 125.1 g/H PUCCRT 3DC (disease control rating) / PUCCRT 1DP, LV activity at 125.1 g/H (% Control rating) / PUCCRT 3DC, LV activity at 125.1 g/H (% Control rating): low volume application; for PUCCRT 1DP disease control rating, HV activity at 100 ppm: 1 day protectant; for PUCCRT 3DC disease control rating, HV activity at 100 ppm: 3 day curative
[3] = HV activity at 100 ppm, 1 Day Protectant, wheat
[4] = HV activity at 100 ppm, 3 Day Curative, wheat
[5] = 1 Day Protectant, wheat leaf blotch
[6] = 3 Day Curative, wheat leaf blotch
[7] = high volume application, 100 ppm, 1DP
[8] = high volume application, 100 ppm, 3DC
[9] = 1 Day Protectant, wheat brown rust
[10] = 3 Day Curative, wheat brown rust
[11] = high volume application, 100 ppm

SMILES: CCCOC(CC)C(Oc1ccccc1)C(C)OC(=O)C(C)NC(=O)c1nccc(OC)c1O (stereo not shown) [Cmpd 289]
- SEPTTR disease control, 1DP [1, 3]: B (≤ 80)
- SEPTTR disease control, 3DC [1, 4]: A (> 80)
- SEPTTR 1DP disease control rating, HV activity [1, 5]: B (≤ 80)
- SEPTTR 3DC disease control rating, HV activity [1, 6]: A (> 80)
- SEPTTR 1DP, HV activity at 100 ppm (% control rating) [1, 7]: B (≤ 80)
- SEPTTR 3DC, HV activity at 100 ppm (% control rating) [1, 8]: A (> 80)
- PUCCRT disease control, 1DP [2, 3]: A (> 80)
- PUCCRT disease control, 3DC [2, 4]: A (> 80)
- PUCCRT 1DP disease control rating, HV activity [2, 9]: A (> 80)
- PUCCRT 3DC disease control rating, HV activity [2, 10]: A (> 80)
- PUCCRT 1DP, HV activity at 100 ppm (% control rating) [2, 7]: A (> 80)
- PUCCRT 3DC, HV activity at 100 ppm (% control rating) [2, 8]: A (> 80)

SMILES: CC(=O)OCOc1c(Br)ccnc1C(=O)N[C@@H](C)C(=O)O[C@@H](C)[C@H](Oc1ccccc1)C(C)C [Cmpd 1086]
- LV activity at 125.1 g/H SEPTTR 1DP (disease control rating) [1, 5]: D
- LV activity at 125.1 g/H SEPTTR 3DC (disease control rating) [1, 6]: D
- LV activity at 125.1 g/H PUCCRT 1DP (disease control rating) [2, 9]: B (≤ 80)
- LV activity at 125.1 g/H PUCCRT 3DC (disease control rating) [2, 10]: D

SMILES: Cc1ccc(O[C@H](CC(C)C)[C@H](C)OC(=O)[C@H](C)NC(=O)c2ncccc2O)c(Cl)c1 [Cmpd 1038]
- HV activity at 100 ppm SEPTTR 1DP (disease control rating) ([1]; HV application, 100 ppm, 1 Day Protectant, wheat leaf blotch): D
- HV activity at 100 ppm SEPTTR 3DC (disease control rating) ([1]; HV application, 100 ppm, 3 Day Curative, wheat leaf blotch): B (≤ 80)
- HV activity at 100 ppm PUCCRT 1DP (disease control rating) ([2]; HV application, 100 ppm, 1 Day Protectant, wheat brown rust): A (> 80)
- HV activity at 100 ppm PUCCRT 3DC (disease control rating) ([2]; HV application, 100 ppm, 3 Day Curative, wheat brown rust): B (≤ 80)

SMILES: COc1ccnc(C(=O)N[C@@H](C)C(=O)O[C@@H](C)[C@H](Oc2ccc(C(F)(F)F)cc2)C(C)C)c1OCOC(C)=O [Cmpd 618]
- SEPTTR 1DP, LV activity at 125.1 g/H (% Control rating) ([1]; 1 Day Protectant): B (≤ 80)
- SEPTTR 3DC, LV activity at 125.1 g/H (% Control rating) ([1]; 3 Day Curative): A (> 80)
- PUCCRT 1DP, LV activity at 125.1 g/H (% Control rating) ([2]; 1 Day Protectant): A (> 80)
- PUCCRT 3DC, LV activity at 125.1 g/H (% Control rating) ([2]; 3 Day Curative): A (> 80)

SMILES: COc1ccnc(C(=O)NC(C)C(=O)OC(C)COc2ccccc2)c1OCOC(C)=O (stereo not shown) [Cmpd 525]
- SEPTTR 1DP, LV activity at 125.1 g/H (% Control rating) ([1]; 1 Day Protectant): B (≤ 80)
- SEPTTR 3DC, LV activity at 125.1 g/H (% Control rating) ([1]; 3 Day Curative): D
- PUCCRT 1DP, LV activity at 125.1 g/H (% Control rating) ([2]; 1 Day Protectant): D
- PUCCRT 3DC, LV activity at 125.1 g/H (% Control rating) ([2]; 3 Day Curative): B (≤ 80)

SMILES: CCC(CC)[C@@H](Oc1ccc(C(F)(F)F)cc1)[C@H](C)OC(=O)[C@H](C)NC(=O)c1nccc(OC)c1OCOC(C)=O [Cmpd 594]
- SEPTTR 1DP, LV activity at 125.1 g/H (% Control rating) ([1]; 1 Day Protectant): A (> 80)
- SEPTTR 3DC, LV activity at 125.1 g/H (% Control rating) ([1]; 3 Day Curative): B (≤ 80)
- PUCCRT 1DP, LV activity at 125.1 g/H (% Control rating) ([2]; 1 Day Protectant): A (> 80)
- PUCCRT 3DC, LV activity at 125.1 g/H (% Control rating) ([2]; 3 Day Curative): A (> 80)

SMILES: COc1cc(O[C@H](CC(C)C)[C@H](C)OC(=O)[C@H](C)NC(=O)c2nccc(OC)c2OC(C)=O)ccc1Cl [Cmpd 1116]
- LV activity at 125.1 g/H SEPTTR 1DP (disease control rating) [1, 5]: A (> 80)
- LV activity at 125.1 g/H SEPTTR 3DC (disease control rating) [1, 6]: A (> 80)
- LV activity at 125.1 g/H PUCCRT 1DP (disease control rating) [2, 9]: A (> 80)
- LV activity at 125.1 g/H PUCCRT 3DC (disease control rating) [2, 10]: A (> 80)

SMILES: CC[C@H](OC(=O)[C@H](C)NC(=O)c1nccc(OC)c1O)[C@H](Oc1ccccc1)C(C)C [Cmpd 815]
- SEPTTR 1DP disease control rating, HV activity at 100 ppm [1, 11]: B (≤ 80)
- SEPTTR 3DC disease control rating, HV activity at 100 ppm [1, 11]: D
- PUCCRT 1DP disease control rating, HV activity at 100 ppm [2, 11]: A (> 80)
- PUCCRT 3DC disease control rating, HV activity at 100 ppm [2, 11]: A (> 80)

SMILES: CC[C@H](NC(=O)c1nccc(OC)c1O)C(=O)O[C@@H](C)[C@@H](COc1ccccc1)Oc1ccccc1 [Cmpd 316]
- SEPTTR 1DP disease control rating, HV activity [1, 5]: B (≤ 80)
- SEPTTR 3DC disease control rating, HV activity [1, 6]: B (≤ 80)
- PUCCRT 1DP disease control rating, HV activity [2, 9]: A (> 80)
- PUCCRT 3DC disease control rating, HV activity [2, 10]: A (> 80)

SMILES: COc1ccnc(C(=O)N[C@H](C(=O)O[C@@H](C)[C@H](Oc2ccccc2)C(C)C)C(C)C)c1O [Cmpd 811]
- SEPTTR 1DP disease control rating, HV activity at 100 ppm [1, 11]: B (≤ 80)
- SEPTTR 3DC disease control rating, HV activity at 100 ppm [1, 11]: B (≤ 80)
- PUCCRT 1DP disease control rating, HV activity at 100 ppm [2, 11]: A (> 80)
- PUCCRT 3DC disease control rating, HV activity at 100 ppm [2, 11]: A (> 80)

SMILES: CCCOCC(C)OC(=O)C(C)NC(=O)c1nccc(OC)c1OCOC(C)=O (stereo not shown) [Cmpd 522]
- SEPTTR 1DP, LV activity at 125.1 g/H (% Control rating) ([1]; 1 Day Protectant): B (≤ 80)
- SEPTTR 3DC, LV activity at 125.1 g/H (% Control rating) ([1]; 3 Day Curative): B (≤ 80)
- PUCCRT 1DP, LV activity at 125.1 g/H (% Control rating) ([2]; 1 Day Protectant): D
- PUCCRT 3DC, LV activity at 125.1 g/H (% Control rating) ([2]; 3 Day Curative): D
